The subject of test [1] is Beet Armyworm (Spodoptera exigua) ("BAW"). The experiment in a line: Bioassay on beet armyworm (BAW), 128-well diet tray assay. To be noted: Table ABC (FB), activity rating class, read-out: BAW (Biological Results, Insect species). The test is classed as in vivo. As to the method:
(§1) Certain molecules disclosed in this document were tested against BAW and CEW using procedures described in the following examples. In the reporting of the results, the “BAW & CL Rating Table” was used (See Table Section). BIOASSAYS ON BAW
Bioassays on BAW were conducted using a 128-well diet tray assay. one to five second instar BAW larvae were placed in each well (3 mL) of the diet tray that had been previously filled with 1 mL of artificial diet to which 50 μg/cm^2 of the test compound (dissolved in 50 μL of 90:10 acetone-water mixture) had been applied (to each of eight wells) and then allowed to dry. Trays were covered with a clear self-adhesive cover and held at 25° C., 14:10 light-dark for five to seven days. Percent mortality was recorded for the larvae in each well; activity in the eight wells was then averaged. The results are indicated in the table entitled “Table ABC: Biological Results” (See Table Section).

For test [2], the system named is Cabbage Looper (Trichoplusia ni) ("CL"). Briefly: Bioassay on cabbage looper (CL), 128-well diet tray assay. Type of test: in vivo. To be noted: Table ABC (FB), activity rating class, read-out: CL (Biological Results, Insect species). The protocol:
as §1
Bioassays on CL were conducted using a 128-well diet tray assay. one to five second instar CL larvae were placed in each well (3 mL) of the diet tray that had been previously filled with 1 mL of artificial diet to which 50 μg/cm^2 of the test compound (dissolved in 50 μL of 90:10 acetone-water mixture) had been applied (to each of eight wells) and then allowed to dry. Trays were covered with a clear self-adhesive cover and held at 25° C., 14:10 light-dark for five to seven days. Percent mortality was recorded for the larvae in each well; activity in the eight wells was then averaged. The results are indicated in the table entitled “Table ABC: Biological Results” (See Table Section).

This is an account of results in patent US9783532B2, “Molecules having certain pesticidal utilities, and intermediates, compositions, and processes related thereto” (Dow AgroSciences LLC, priority 2013, dated 2017).

Regarding `Cc1cc(-c2ncn(-c3ccc(OC(F)(F)F)cc3)n2)ccc1CCNC(=O)/N=C1\SCC(=O)N1c1cc(Cl)ccc1C(C)C` [FB7, (Z)-1-(3-(5-chloro-2-isopropylphenyl)-4-oxothiazolidin-2-ylidene)-3-(2-methyl-4-(1-(4-(trifluoromethoxy)phenyl)-1H-1,2,4-triazol-3-yl)phenethyl)urea], the pest or weed control at 50 µg/cm2 in test [1] and in test [2] was 50 to 100% throughout.

On to `Cc1ccc(C(C)C)c(N2C(=O)CS/C2=N\C(=O)NCCc2ccc(-c3ncn(-c4ccc(OC(F)(F)F)cc4)n3)cc2F)c1` [FB8, (Z)-1-(2-fluoro-4-(1-(4-(trifluoromethoxy)phenyl)-1H-1,2,4-triazol-3-yl)phenethyl)-3-(3-(2-isopropyl-5-methylphenyl)-4-oxothiazolidin-2-ylidene)urea], for which the pest or weed control at 50 µg/cm2 in test [1] and in test [2] was 50 to 100% each time.

Turning to `COc1ccc(C(C)C)c(N2C(=O)CS/C2=N\C(=O)NCCc2ccc(-c3ncn(-c4ccc(OC(F)(F)F)cc4)n3)cc2F)c1` [FB9, (Z)-1-(2-fluoro-4-(1-(4-(trifluoromethoxy)phenyl)-1H-1,2,4-triazol-3-yl)phenethyl)-3-(3-(2-isopropyl-5-methoxyphenyl)-4-oxothiazolidin-2-ylidene)urea], the pest or weed control at 50 µg/cm2 in test [1] and in test [2] was 50 to 100% in each case.

Consider `CCc1ccccc1-n1c(=O)n(CC)s/c1=N\C(=O)NCCc1ccc(-c2ncn(-c3ccc(OC(F)(F)F)cc3)n2)cc1` [FB10, (Z)-1-(2-ethyl-4-(2-ethylphenyl)-3-oxo-1,2,4-thiadiazolidin-5-ylidene)-3-(4-(1-(4-(trifluoromethoxy)phenyl)-1H-1,2,4-triazol-3-yl)phenethyl)urea], for which the pest or weed control at 50 µg/cm2 in test [1] and in test [2] was 50 to 100% throughout.

As to `CCn1s/c(=N\C(=O)NCCc2ccc(-c3ncn(-c4ccc(OC(F)(F)F)cc4)n3)cc2)n(-c2ccc(OC)cc2C(C)C)c1=O` [FB11, (Z)-1-(2-ethyl-4-(2-isopropyl-4-methoxyphenyl)-3-oxo-1,2,4-thiadiazolidin-5-ylidene)-3-(4-(1-(4-(trifluoromethoxy)phenyl)-1H-1,2,4-triazol-3-yl)phenethyl)urea], the pest or weed control at 50 µg/cm2 in test [1] lay in the range of 0 to 50%; in test [2], 50 to 100%.

Turning to `CCn1s/c(=N\C(=O)NCCc2ccc(-c3ncn(-c4ccc(OC(F)(F)F)cc4)n3)cc2)n(-c2cc(F)ccc2C(C)C)c1=O` [FB12, (Z)-1-(2-ethyl-4-(5-fluoro-2-isopropylphenyl)-3-oxo-1,2,4-thiadiazolidin-5-ylidene)-3-(4-(1-(4-(trifluoromethoxy)phenyl)-1H-1,2,4-triazol-3-yl)phenethyl)urea], the pest or weed control at 50 µg/cm2 in test [1] and in test [2] was 50 to 100% each time.

Regarding `CCn1s/c(=N\C(=O)NCCc2ccc(-c3ncn(-c4ccc(OC(F)(F)F)cc4)n3)cc2)n(-c2ccc(F)cc2C(C)C)c1=O` [FB13, (Z)-1-(2-ethyl-4-(4-fluoro-2-isopropylphenyl)-3-oxo-1,2,4-thiadiazolidin-5-ylidene)-3-(4-(1-(4-(trifluoromethoxy)phenyl)-1H-1,2,4-triazol-3-yl)phenethyl)urea], the results for the pest or weed control at 50 µg/cm2 in test [1] and in test [2] were 0 to 50% and 50 to 100%, respectively.

In the case of `CCn1s/c(=N\C(=O)NCCc2ccc(-c3ncn(-c4ccc(OC(F)(F)F)cc4)n3)cc2)n(-c2ccccc2C(C)C)c1=O` [FB14], the pest or weed control at 50 µg/cm2 in test [1] and in test [2] was 50 to 100% in each case.

As for `Cc1ccc(C(C)C)c(N2C(=O)CS/C2=N\C(=O)NC2CCCCC2c2ccc(-c3ncn(-c4ccc(OC(F)(F)F)cc4)n3)cc2)c1` (stereo not drawn) [FB15, (Z)-1-(3-(2-isopropyl-5-methylphenyl)-4-oxothiazolidin-2-ylidene)-3-(2-(4-(1-(4-(trifluoromethoxy)phenyl)-1H-1,2,4-triazol-3-yl)phenyl)cyclohexyl)urea], the pest or weed control at 50 µg/cm2 in test [1] and in test [2] was 50 to 100% each time.

`Cc1ccccc1NC(=S)NC(=O)NCc1cccc(-c2ncn(-c3ccc(OC(F)(F)F)cc3)n2)c1` [FB18, 1-(o-tolylcarbamothioyl)-3-[[3-[1-[4-(trifluoromethoxy)phenyl]-1H-1,2,4-triazol-3-yl]phenyl]methyl]urea]: the pest or weed control at 50 µg/cm2 in test [1] and in test [2] was 50 to 100% in each case.

On to `COc1ccc(NC(=S)NC(=O)NCc2cccc(-c3ncn(-c4ccc(OC(F)(F)F)cc4)n3)c2)c(C)c1` [FB19, 1-[(4-methoxy-2-methyl-phenyl)carbamothioyl]-3-[[3-[1-[4-(trifluoromethoxy)phenyl]-1H-1,2,4-triazol-3-yl]phenyl]methyl]urea], for which the pest or weed control at 50 µg/cm2 in test [1] and in test [2] was 50 to 100% throughout.

With `CCc1ccccc1NC(=S)NC(=O)NCc1cccc(-c2ncn(-c3ccc(OC(F)(F)F)cc3)n2)c1` [FB20, 1-[(2-ethylphenyl)carbamothioyl]-3-[[3-[1-[4-(trifluoromethoxy)phenyl]-1H-1,2,4-triazol-3-yl]phenyl]methyl]urea], the pest or weed control at 50 µg/cm2 in test [1] and in test [2] was 50 to 100% each time.

On to `CCc1cccc(C)c1NC(=S)NC(=O)NCc1cccc(-c2ncn(-c3ccc(OC(F)(F)F)cc3)n2)c1` [FB21, 1-[(2-ethyl-6-methyl-phenyl)carbamothioyl]-3-[[3-[1-[4-(trifluoromethoxy)phenyl]-1H-1,2,4-triazol-3-yl]phenyl]methyl]urea], for which the pest or weed control at 50 µg/cm2 in test [1] and in test [2] was 50 to 100% each time.

Consider `CC(C)c1ccccc1NC(=S)NC(=O)NCc1cccc(-c2ncn(-c3ccc(OC(F)(F)F)cc3)n2)c1` [FB22, 1-[(2-isopropylphenyl)carbamothioyl]-3-[[3-[1-[4-(trifluoromethoxy)phenyl]-1H-1,2,4-triazol-3-yl]phenyl]methyl]urea], for which the pest or weed control at 50 µg/cm2 in test [1] and in test [2] was 50 to 100% in each case.

Regarding `Cc1ccc(NC(=S)NC(=O)NCc2cccc(-c3ncn(-c4ccc(OC(F)(F)F)cc4)n3)c2)c(C(C)C)c1` [FB23, 1-[(2-isopropyl-4-methyl-phenyl)carbamothioyl]-3-[[3-[1-[4-(trifluoromethoxy)phenyl]-1H-1,2,4-triazol-3-yl]phenyl]methyl]urea], the pest or weed control at 50 µg/cm2 in test [1] and in test [2] was 50 to 100% throughout.

On to `CC(C)c1cc(F)ccc1NC(=S)NC(=O)NCc1cccc(-c2ncn(-c3ccc(OC(F)(F)F)cc3)n2)c1` [FB24, 1-[(4-fluoro-2-isopropyl-phenyl)carbamothioyl]-3-[[3-[1-[4-(trifluoromethoxy)phenyl]-1H-1,2,4-triazol-3-yl]phenyl]methyl]urea], for which the pest or weed control at 50 µg/cm2 in test [1] and in test [2] was 50 to 100% throughout.

Consider `Cc1ccc(C(C)C)c(NC(=S)NC(=O)NCc2cccc(-c3ncn(-c4ccc(OC(F)(F)F)cc4)n3)c2)c1` [FB25, 1-[(2-isopropyl-5-methyl-phenyl)carbamothioyl]-3-[[3-[1-[4-(trifluoromethoxy)phenyl]-1H-1,2,4-triazol-3-yl]phenyl]methyl]urea], for which the pest or weed control at 50 µg/cm2 in test [1] and in test [2] was 50 to 100% each time.

Take `CC(C)c1ccc(Cl)cc1NC(=S)NC(=O)NCc1cccc(-c2ncn(-c3ccc(OC(F)(F)F)cc3)n2)c1` [FB26, 1-[(5-chloro-2-isopropyl-phenyl)carbamothioyl]-3-[[3-[1-[4-(trifluoromethoxy)phenyl]-1H-1,2,4-triazol-3-yl]phenyl]methyl]urea]: the pest or weed control at 50 µg/cm2 in test [1] and in test [2] was 50 to 100% in each case.

In the case of `Cc1ccccc1N1C(=O)CS/C1=N\C(=O)NCc1cccc(-c2ncn(-c3ccc(OC(F)(F)F)cc3)n2)c1` [FB27, (Z)-1-(4-oxo-3-(o-tolyl)thiazolidin-2-ylidene)-3-(3-(1-(4-(trifluoromethoxy)phenyl)-1H-1,2,4-triazol-3-yl)benzyl)urea], the pest or weed control at 50 µg/cm2 in test [1] and in test [2] was 50 to 100% in each case.

Consider `COc1ccc(N2C(=O)CS/C2=N\C(=O)NCc2cccc(-c3ncn(-c4ccc(OC(F)(F)F)cc4)n3)c2)c(C)c1` [FB28, (Z)-1-(3-(4-methoxy-2-methylphenyl)-4-oxothiazolidin-2-ylidene)-3-(3-(1-(4-(trifluoromethoxy)phenyl)-1H-1,2,4-triazol-3-yl)benzyl)urea], for which the pest or weed control at 50 µg/cm2 in test [1] and in test [2] was 50 to 100% each time.

Regarding `CCc1ccccc1N1C(=O)CS/C1=N\C(=O)NCc1cccc(-c2ncn(-c3ccc(OC(F)(F)F)cc3)n2)c1` [FB29, (Z)-1-(3-(2-ethylphenyl)-4-oxothiazolidin-2-ylidene)-3-(3-(1-(4-(trifluoromethoxy)phenyl)-1H-1,2,4-triazol-3-yl)benzyl)urea], the pest or weed control at 50 µg/cm2 in test [1] and in test [2] was 50 to 100% in each case.
